Test [1] deals with TNF-α release, human peripheral blood mononuclear cells (PBMC). Put plainly: TNF-α Release in LPS-stimulated PBMC. The format is cell-based. The following applies: 30 minutes pre-incubation, lipopolysaccharide stimulation 18 hours, TR-FRET, read-out: TNF-α IC50 range. Here is the method: Human peripheral blood mononuclear cells (PBMC) were isolated from buffy coats. The blood is mixed with saline at a ratio of 1:1, and the PBMC were isolated using Lymphoprep Tube™ (Nycomed, Norway). The PBMC were suspended in RPMI1640 with 0.5% human serum albumin, pen/strep and 2 mM L-glutamine at a concentration of 5×105 c/ml. The cells were pre-incubated for 30 minutes with the test compounds in 96 well tissue culture plates and stimulated for 18 hours with lipopolysaccharide 1 mg/ml (Sigma). TNF-α concentration in the supernatants was measured using homogeneous time-resolved fluorescence resonance (TR-FRET). The assay is quantified by measuring fluorescence at 665 nm (proportional to TNF-α concentration) and 620 nm (control).
Results were expressed as IC50 values calculated from inhibition curves using as positive controls the secretion in LPS stimulated wells and as negative controls the secretion in unstimulated cells.
For orientation: Time-resolved FRET reads energy transfer from a long-lived donor to a nearby acceptor.

Test [2] deals with human PDE41 Dcatalytic domain (UniProt no. Q08499 [S380-L740]) (Homo sapiens (Human), UniProt Q08499). Briefly: PDE4 Assay (TR-FRET, FAM-cAMP cleavage). The format is biochemical. The settings on record: human PDE4D catalytic domain, cAMP / FAM-cAMP substrate, read-out: PDE4 IC50 range. Here is the method:
The human PDE41 Dcatalytic domain (UniProt no. Q08499 [S380-L740]) was incubated with a mixture of non-labelled cAMP (cyclic adenosine monophosphate) and fluorescein amidite (FAM) conjugated cAMP and titrated test or reference compound. Following brief incubation the enzymatic reaction was stopped by addition of binding buffer containing nanoparticles with immobilized trivalent metal ions capable of binding 1) AMP phospho groups and 2) terbium (Tb) donor fluorophores. Subsequent excitation of the Tb donor triggers time-resolved FRET to adjacent FAM acceptor molecules resulting in light emission. In the presence of a PDE4 inhibitor, AMP generation was reduced resulting in a lower fluorescence signal. The cAMP phosphodiester is not bound by the detection system.
The results were calculated as the molar concentrations resulting in 50/inhibition of the substrate cleavage compared to controls samples, and are expressed as IC50 (nM).

Structures are written as SMILES. pIC50: −log10 of the molar value.

human PDE41 Dcatalytic domain, sequence (Q08499 380-740): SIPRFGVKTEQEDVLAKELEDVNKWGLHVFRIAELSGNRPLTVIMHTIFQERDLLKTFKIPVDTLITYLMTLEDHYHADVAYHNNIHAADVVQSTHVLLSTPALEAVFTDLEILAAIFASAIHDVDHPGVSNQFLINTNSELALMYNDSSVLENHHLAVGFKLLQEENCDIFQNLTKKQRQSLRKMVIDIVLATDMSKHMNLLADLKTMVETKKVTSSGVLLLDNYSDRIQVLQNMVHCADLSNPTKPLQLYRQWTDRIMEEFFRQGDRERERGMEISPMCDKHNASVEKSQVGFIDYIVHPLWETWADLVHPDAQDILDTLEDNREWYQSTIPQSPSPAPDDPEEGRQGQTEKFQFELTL

With `CN(CCC1CCOCC1)c1nc2c(c(NC3CCOCC3)n1)[S+]([O-])CC2` (stereo in doubt) [Example 1, (5R)—N2-methyl-5-oxido-N4-tetrahydropyran-4-yl-N2-(2-tetrahydropyran-4-ylethyl)-6,7-dihydrothieno[3,2-d]pyrimidin-5-ium-2,4-diamine], the pIC50 in test [1] and in test [2] was 7.30 to 8.00 in each case.
Turning to `CCN(CCC1CCOCC1)c1nc2c(c(NC3CCOCC3)n1)[S@@+]([O-])CC2` [Example 2, (5R)—N2-ethyl-5-oxido-N4-tetrahydropyran-4-yl-N2-(2-tetrahydropyran-4-ylethyl)-6,7-dihydrothieno[3,2-d]pyrimidin-5-ium-2,4-diamine], the pIC50 in test [1] and in test [2] was greater than 8.00 each time.
`CN(CCC1CCOCC1)c1nc2c(c(NC(C)(C)C)n1)[S+]([O-])CC2` (stereo not drawn) [Example 3, N4-tert-butyl-N2-methyl-5-oxido-N2-(2-tetrahydropyran-4-ylethyl)-6,7-dihydrothieno[3,2-d]pyrimidin-5-ium-2,4-diamine]: the pIC50 in test [1] and in test [2] was 7.30 to 8.00 throughout.
In the case of `CCCNc1nc(N(C)CCC2CCOCC2)nc2c1[S+]([O-])CC2` (stereo not drawn) [Example 4, N2-methyl-5-oxido-N4-propyl-N2-(2-tetrahydropyran-4-ylethyl)-6,7-dihydrothieno[3,2-d]pyrimidin-5-ium-2,4-diamine], the figures for the pIC50 in test [1] and in test [2] were 7.30 to 8.00 and 7.00 to 7.30, respectively.
`CC(C)Nc1nc(N(C)CCC2CCOCC2)nc2c1[S+]([O-])CC2` (stereo not drawn) [Example 5, N4-isopropyl-N2-methyl-5-oxido-N2-(2-tetrahydropyran-4-ylethyl)-6,7-dihydrothieno[3,2-d]pyrimidin-5-ium-2,4-diamine]: the pIC50 in test [1] and in test [2] was 7.30 to 8.00 in each case.
Regarding `CCCCNc1nc(N(C)CCC2CCOCC2)nc2c1[S+]([O-])CC2` (stereo not drawn) [Example 6, N4-butyl-N2-methyl-5-oxido-N2-(2-tetrahydropyran-4-ylethyl)-6,7-dihydrothieno[3,2-d]pyrimidin-5-ium-2,4-diamine], the pIC50 in test [1] and in test [2] was 7.30 to 8.00 each time.
`CC(C)CNc1nc(N(C)CCC2CCOCC2)nc2c1[S+]([O-])CC2` (stereo not drawn) [Example 7, N4-isobutyl-N2-methyl-5-oxido-N2-(2-tetrahydropyran-4-ylethyl)-6,7-dihydrothieno[3,2-d]pyrimidin-5-ium-2,4-diamine]: the negative-log IC50 (pIC50) in test [1] and in test [2] was 7.30 to 8.00 in each case.
Consider `CN(CCC1CCOCC1)c1nc2c(c(NC3(C)CCC3)n1)[S+]([O-])CC2` (stereo not drawn) [Example 8, N2-methyl-N4-(1-methylcyclobutyl)-5-oxido-N2-(2-tetrahydropyran-4-ylethyl)-6,7-dihydrothieno[3,2-d]pyrimidin-5-ium-2,4-diamine], for which the pIC50 in test [1] is greater than 8.00; in test [2], 7.30 to 8.00.
On the same counts, the results for `CN(CCC1CCOCC1)c1nc2c(c(NC3CCC3)n1)[S+]([O-])CC2` (stereo not drawn) [Example 9, N4-cyclobutyl-N2-methyl-5-oxido-N2-(2-tetrahydropyran-4-ylethyl)-6,7-dihydrothieno[3,2-d]pyrimidin-5-ium-2,4-diamine] are 7.30 to 8.00 and 7.30 to 8.00.
In the case of `CN(CCC1CCOCC1)c1nc2c(c(NC3(C#N)CCC3)n1)[S+]([O-])CC2` (stereo not drawn) [Example 10, 1-[[2-[methyl(2-tetrahydropyran-4-ylethyl)amino]-5-oxido-6,7-dihydrothieno[3,2-d]pyrimidin-5-ium-4-yl]amino]cyclobutanecarbonitrile], the pIC50 in test [1] and in test [2] was 7.30 to 8.00 in each case.
As for `CN(CCC1CCOCC1)c1nc2c(c(NC3(C#N)CC3)n1)[S+]([O-])CC2` (stereo not drawn) [Example 11, 1-[[2-[methyl(2-tetrahydropyran-4-ylethyl)amino]-5-oxido-6,7-dihydrothieno[3,2-d]pyrimidin-5-ium-4-yl]amino]cyclopropanecarbonitrile], the pIC50 in test [1] and in test [2] was 7.30 to 8.00 in each case.
In the case of `CC[C@H](C)Nc1nc(N(C)CCC2CCOCC2)nc2c1[S+]([O-])CC2` (stereo partly drawn) [Example 12, N2-methyl-N4-[(1S)-1-methylpropyl]-5-oxido-N2-(2-tetrahydropyran-4-ylethyl)-6,7-dihydrothieno[3,2-d]pyrimidin-5-ium-2,4-diamine], the pIC50 in test [1] and in test [2] was 7.30 to 8.00 in each case.
Regarding `CC[C@@H](C)Nc1nc(N(C)CCC2CCOCC2)nc2c1[S+]([O-])CC2` (stereo partly drawn) [Example 13, N2-methyl-N4-[(1R)-1-methylpropyl]-5-oxido-N2-(2-tetrahydropyran-4-ylethyl)-6,7-dihydrothieno[3,2-d]pyrimidin-5-ium-2,4-diamine], the pIC50 in test [1] is greater than 8.00; in test [2], 7.30 to 8.00.
For the compound `CN(CCC1CCOCC1)c1nc2c(c(NC3(C)CC3)n1)[S+]([O-])CC2` (stereo not drawn) [Example 14, N2-methyl-N4-(1-methylcyclopropyl)-5-oxido-N2-(2-tetrahydropyran-4-ylethyl)-6,7-dihydrothieno[3,2-d]pyrimidin-5-ium-2,4-diamine], the figures for the pIC50 in test [1] and in test [2] were greater than 8.00 and 7.30 to 8.00, respectively.
On the same counts, the results for `CN(CCC1CCOCC1)c1nc2c(c(NC3CC4(COC4)C3)n1)[S+]([O-])CC2` (stereo not drawn) [Example 15, N2-methyl-N4-(6-oxaspiro[3.3]heptan-2-yl)-5-oxido-N2-(2-tetrahydropyran-4-ylethyl)-6,7-dihydrothieno[3,2-d]pyrimidin-5-ium-2,4-diamine] are greater than 8.00 and 7.30 to 8.00.
On the same counts, the results for `COc1cccc(Nc2nc(N(C)CCC3CCOCC3)nc3c2[S+]([O-])CC3)c1` (stereo not drawn) [Example 16, N4-(3-methoxyphenyl)-N2-methyl-5-oxido-N2-(2-tetrahydropyran-4-ylethyl)-6,7-dihydrothieno[3,2-d]pyrimidin-5-ium-2,4-diamine] are greater than 8.00 and greater than 8.00.
Regarding `CN(CCC1CCOCC1)c1nc2c(c(NC3CCCCC3)n1)[S+]([O-])CC2` (stereo not drawn) [Example 17, N4-cyclohexyl-N2-methyl-5-oxido-N2-(2-tetrahydropyran-4-ylethyl)-6,7-dihydrothieno[3,2-d]pyrimidin-5-ium-2,4-diamine], the pIC50 in test [1] and in test [2] was greater than 8.00 each time.
In the case of `CN(CCC1CCOCC1)c1nc2c(c(NC(C)(C)CO)n1)[S+]([O-])CC2` (stereo not drawn) [Example 18, 2-methyl-2-[[2-[methyl(2-tetrahydropyran-4-ylethyl)amino]-5-oxido-6,7-dihydrothieno[3,2-d]pyrimidin-5-ium-4-yl]amino]propan-1-ol], the pIC50 in test [1] and in test [2] was less than 7.00 in each case.
For the compound `CCNc1nc(N(C)CCC2CCOCC2)nc2c1[S+]([O-])CC2` (stereo not drawn) [Example 19, N4-ethyl-N2-methyl-5-oxido-N2-(2-tetrahydropyran-4-ylethyl)-6,7-dihydrothieno[3,2-d]pyrimidin-5-ium-2,4-diamine], the pIC50 in test [1] was 7.00 to 7.30; in test [2], less than 7.00.
For `CN(CCC1CCOCC1)c1nc2c(c(NC3CCCC3)n1)[S+]([O-])CC2` (stereo not drawn) [Example 20, N4-cyclopentyl-N2-methyl-5-oxido-N2-(2-tetrahydropyran-4-ylethyl)-6,7-dihydrothieno[3,2-d]pyrimidin-5-ium-2,4-diamine], in that order: greater than 8.00 and greater than 8.00.
For `CN(CCC1CCOCC1)c1nc2c(c(NC3COC3)n1)[S+]([O-])CC2` (stereo not drawn) [Example 21, N2-methyl-N4-(oxetan-3-yl)-5-oxido-N2-(2-tetrahydropyran-4-ylethyl)-6,7-dihydrothieno[3,2-d]pyrimidin-5-ium-2,4-diamine], in that order: 7.00 to 7.30 and less than 7.00.
For `CN(CCC1CCOCC1)c1nc2c(c(NC3(CO)CCCC3)n1)[S+]([O-])CC2` (stereo not drawn) [Example 22, [1-[[2-[methyl(2-tetrahydropyran-4-ylethyl)amino]-5-oxido-6,7-dihydrothieno[3,2-d]pyrimidin-5-ium-4-yl]amino]cyclopentyl]methanol], in that order: less than 7.00 and less than 7.00.
With `CN(CCC1CCOCC1)c1nc2c(c(NC3(CO)CCC3)n1)[S+]([O-])CC2` (stereo not drawn) [Example 23, [1-[[2-[methyl(2-tetrahydropyran-4-ylethyl)amino]-5-oxido-6,7-dihydrothieno[3,2-d]pyrimidin-5-ium-4-yl]amino]cyclobutyl]methanol], the pIC50 in test [1] and in test [2] was less than 7.00 throughout.
Consider `CN(CCC1CCOCC1)c1nc2c(c(NC3(CO)CC3)n1)[S+]([O-])CC2` (stereo not drawn) [Example 24, [1-[[2-[methyl(2-tetrahydropyran-4-ylethyl)amino]-5-oxido-6,7-dihydrothieno[3,2-d]pyrimidin-5-ium-4-yl]amino]cyclopropyl]methanol], for which the pIC50 in test [1] and in test [2] was less than 7.00 throughout.

As usually defined, the pIC50 is −log10 of the IC50, conventionally taken in molar units.

Source of the values: US11299497B2, “Substituted tetrahydropyran dihydrothienopyrimidines and their use as phosphodiesterase inhibitors” (UNION therapeutics A/S, priority 2017, dated 2022).
